Results published in patent US20190008151A1, “PLANT DISEASE CONTROL COMPOSITION AND PLANT DISEASE CONTROL METHOD” (SUMITOMO CHEMICAL COMPANY, LIMITED, priority 2015, published 2019).

Columns and labels:
wheat leaf blight fungus = experiment: Test Example 3: growth of wheat leaf blight fungus in YBG medium, microtiter plate, absorbance at 550 nm; type: cell-based; conditions: 18° C., six days
Protocol: The present compound 1 or the present compound 2-1 was dissolved into dimethyl sulfoxide such that each concentration of the present compound 1 or the present compound 2-1 was adjusted to one hundred fifty times as much as the concentration indicated in the below-mentioned Table 4. The resultant agent solution was dispensed into a microliter plate (with 96 wells) in 1 μl portion thereof per well. One hundred forty nine (149) μl of YBG medium (which was prepared by dissolving 10 g of yeast extract, 10 g of Bacto Peptone, and 20 mL of glycerol into 1 L of water, followed by sterilizing the medium) was dispensed into the wells to which the agent solution(s) was/were dispensed. The plate was cultivated at 18° C. for six days, thereby allowing wheat leaf blight fungus to undergo proliferation, and the absorbance at 550 nm of each well of the micro titer plate was then measured to examine a degree of growth of the wheat leaf blight fungus (hereinafter referred to as “treated group”).
Whereas, wheat leaf blight fungus was proliferated similarly to the case of the treated group except that dimethyl sulfoxide was used instead of the agent solution, and the degree of the growth was examined (hereinafter referred to as “untreated group”). The efficacy was calculated from the respective obtained degree of growth by the below-mentioned “Equation 1”.
Efficacy(%)=100×(X−Y)/X Equation 1 […]

[1] = tested on: wheat rust fungus (Puccinia recondite); experiment: Test Example 4: foliar spray of flowable formulations on wheat, inoculation with wheat rust fungus, lesion area; type: in vivo, Puccinia recondite on wheat (cultivar. Shirogane); conditions: lesion area after ten days at 23° C.
Protocol: Five (5) parts of the present compound 1, 35 parts of a mixture of white carbon and ammonium polyoxyethylene alkyl ether sulfate (the weight ratio of 1:1) and […] of water were mixed, and the mixture was then finely-ground by a wet grinding method to obtain a flowable formulation comprising the present compound 1. Separately, the flowable formulation comprising the present compound 2-1 was prepared according to the above-mentioned similar method except that the present compound 2-1 was used instead of the present compound 1 to form a flowable formulation comprising the present compound 2-1.
Each of the above-mentioned respective flowable formulations, and the flowable formulation comprising the present compound 1 and the present compound 2-1 that was prepared according to the above-mentioned Formulation Example 3 was diluted with water such that each concentration of the respective compounds in the dilution solutions was adjusted to that indicated in Table 5, to prepare the dilution solutions, respectively.
A plastic pot was filled with soil, and thereto wheat (cultivar. Shirogane) was seeded, and the plants were grown in a greenhouse for ten days. […]
From each of the lesion area of the treated group and the untreated group, respectively, the efficacy of the treated group was calculated by the below-mentioned Equation 2. […]

For CNC(=O)C(OC)c1ccccc1COc1cc(C)ccc1C (stereo not shown) [Present compound 1], the “Efficacy (%)” value (wheat leaf blight fungus; concentration in medium 0.005 ppm) was 20%, the “Efficacy (%)” value (wheat leaf blight fungus; concentration in medium 0.1 ppm) was 65% and the “Efficacy (%)” value ([1]; concentration 0.0005 ppm) was 22%. The “Efficacy (%)” value ([1]; concentration 0.01 ppm) was 46%.
